Measurements as given in patent US10189803B2, “Synthesis of therapeutic and diagnostic drugs centered on regioselective and stereoselective ring opening of aziridinium ions” (ILLINOIS INSTITUTE OF TECHNOLOGY, priority 2008, dated 2019).

Legend:
[1] = Complexation kinetics with Bi(III), Arsenazo III (AAIII) spectroscopic competing reaction; type: physicochemical; conditions: pH 4.0 (0.15M NH4OAc), 25° C., 1 hour
Method: The novel ligand DEPA was further evaluated for the complexation kinetics with other metals. The complexation kinetics of the ligand DEPA with Bi(III) was determined using a well-known spectroscopic competing reaction with AAIII according to a modification of the reported procedure (Kodama, M.; Koike, T.; Mahatma, A. B.; Kimura, E. Inorg. Chem. 1991, 30, 1270). AAIII is known to form a weak complex with many different metals, which produce a UV absorbance maximum between ˜652 nm. However, uncomplexed AAIII absorb little at this wavelength. When introduced to a solution containing the AAIII-metal complex, a chelate can compete with AAIII for the metal. The idea is that if the chelate is more capable of binding the metal than AAIII, the metal will dissociate from the AAIII complex and form a complex with the chelate leading to the decrease in the absorbance at the wavelength. The absorbance (A652) for AAIII-Bi(III) complex was measured in the absence and in the presence of the ligands over 1 hour at rt. The complexation kinetics of Bi(III) was determined at pH 4.0 as hydrolysis occurs at a higher pH. The complexation result of the new ligands studied herein was compared to that of DOTA.
General procedure for complexation kinetics using AAIII. The kinetics experiments were performed as previously described. […]

[2] = Complexation kinetics with Lu(III), AAIII assay; type: physicochemical
Method: In summary, the novel decadentate ligand DEPA having both macrocyclic and acyclic metal binding moieties was efficiently prepared.
General procedure for complexation kinetics using AAIII. The kinetics experiments were performed as previously described. Ultrapure ammonium acetate (Aldrich, #431311) and hydrochloric acid solution (J. T. Baker, #JT6900-5) were purchased and used as received. All buffer solutions were prepared using deionized water (Milli-Q®, 18 MΩ). Metal-free stock solutions of all NH4OAc buffers (0.15 M, pH 4 or pH 4.5) were prepared using Chelex-100 resin (100-200 mesh, Bio-Rad Lab, Hercules, Calif.). Chelex resin (5 g) was added into the butter solution (100 mL) and the mixture was shaken for 1 h in a shaker (Eberbach), stored in the refrigerator overnight, and filtered through a Corning filter system (430513, pore size […]). A 15 μM AAIII solution in 0.15 M NH4OAc (pH 4 or pH 4.5) were prepared by adding AAIII (5.82 mg) to the NH4OAc buffer (500 mL). A solution of Bi(III)-AAIII (7.5 μM) was freshly prepared by mixing AAIII solution (15 μM, 50 mL) in 0.15 M NH4OAc (pH 4) with Bi(III) atomic absorption standard solution (79 μL, 995 μg/mL). A solution of Lu(III)-AAIII (1.8 μM) was freshly prepared by mixing AAIII solution ([…], 50 mL) in 0.15 M NH4OAc buffer (pH 4.5) with Lu(III) atomic absorption standard solution (15.4 μL, 1014 μg/ml). […]

[3] = tested on: Hela cells; test: Antiproliferative activity, MTS assay, HeLa cells; type: cell-based, Human; conditions: for IC50: 72 h incubation, MTS; for cytotoxicity in HeLa cells over a series of concentrations (in words): FIG. 18
Method: Cell culture Human cervix HeLa cell line was obtained from ATCC (Rockville, Md.) and cultured in minimum essential medium (MEM) with L-glutamine (2 mM), Earle's BSS and sodium bicarbonate (1.5 g/L), supplemented with 10% fetal bovine serum (FBS), non-essential amino acids (0.1 mM), sodium pyruvate (1 mM) and antibiotic/antimycotic solution in a humidified atmosphere with 5% CO2 at 37° C. […] Lung fibroblast MRC-5 cell line was obtained from ATCC (Rockville, Md.) and cultured in ATCC formulated EMEM, supplemented with 10% fetal bovine serum (FBS) in a humidified atmosphere with 5% CO2 at 37° C.
(§1) Antiproliferative Activity. Cells were seeded onto 96-well plate at density of 2,000 cells for Hela cells or 5,000 cells for HT29 cells or 5,000 cells for MRC-5 per well in 0.1 mL complete medium and allowed to attach for 24 h. Varying concentrations of the test compounds in the final volume of 0.1 mL complete medium were then added in at least five series dilutions and incubated for 72 h. To measure cell proliferation, the Cell Titer 96 aqueous nonreactive cell proliferation assay (Promega Life Sciences, Madison, Wis.) was used according to the manufacturer's instructions. Briefly, MTS (2 mg/mL) and PMS (0.92 mg/ml) were mixed in a ratio of 20:1. An aliquot (20 μL) of the MTS/PMS mixture was added into each well, and the plate was incubated for 3 h at 37° C. Optical absorbance at 490 nm was then recorded with an enzyme-linked immunosorbent assay (ELISA) microtiter plate reader (Biotek). Each experiment was done at least in triplicate. Antiproliferative activity of the test compounds was expressed as the fraction of optical densities of treated the cells relative to the untreated solvent controls.^31 The data were plotted in GraphPad Prizm 3.0. Nonlinear regression analysis was used to determine IC50 values.
Cell culture. Human cervix HeLa cell line was obtained from ATCC (Rockville, Md.) and cultured in minimum essential medium (MEM) with L-glutamine (2 mM), Earle's BSS and sodium bicarbonate (1.5 g/L), supplemented with 10% fetal bovine serum (FBS), non-essential amino acids (0.1 mM), sodium pyruvate (1 mM) and antibiotic/antimycotic solution in a humidified atmosphere with 5% CO2 at 37° C.
as §1, with “activity.” for “Activity.”, “cells” for “cells or 5,000 cells for MRC-5”, “controls.” for “controls.^31”

[4] = tested on: HT29 cells; test: Antiproliferative activity, MTS assay, HT29 cells; type: cell-based, Human; conditions: 72 h incubation
Outline: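 HeLa cells (2,000/well) and HT29 cells (5,000/well) were allowed to attach for 24 h, then exposed to at least five compound dilutions for 72 h. Viability was read by MTS/PMS reduction (3 h, 37° C, A490). IC50 was obtained by nonlinear regression of OD as a fraction of solvent control, at least in triplicate.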

[5] = tested on: MRC-5 cells; test: Antiproliferative activity in non-cancer lung fibroblast MRC-5 cells; type: cell-based, human; conditions: FIG. 20
Method: The cytotoxicity of the chelators in the cancer cells was compared to their cytotoxicities in non-cancer cells using human lung fibroblast cell (MRC-5).
Cell culture Human cervix HeLa cell line was obtained from ATCC (Rockville, Md.) and cultured in minimum essential medium (MEM) with L-glutamine (2 mM), Earle's BSS and sodium bicarbonate (1.5 g/L), supplemented with 10% fetal bovine serum (FBS), non-essential amino acids (0.1 mM), sodium pyruvate (1 mM) and antibiotic/antimycotic solution in a humidified atmosphere with 5% CO2 at 37° C. Human colon cancer cell line HT29 was maintained in a humidified atmosphere with 5% CO2 at 37° C. in RPMI-1640 medium, containing 10% FBS with L-glutamine and antibiotic/antimycotic. Lung fibroblast MRC-5 cell line was obtained from ATCC (Rockville, Md.) and cultured in ATCC formulated EMEM, supplemented with 10% fetal bovine serum (FBS) in a humidified atmosphere with 5% CO2 at 37° C.
Antiproliferative Activity. […] Optical absorbance at 490 nm was then recorded with an enzyme-linked immunosorbent assay (ELISA) microtiter plate reader (Biotek). […] Antiproliferative activity of the test compounds was expressed as the fraction of optical densities of treated the cells relative to the untreated solvent controls.^31 The data were plotted in GraphPad Prizm 3.0. […]

[6] = tested on: Hela cells; test: Iron saturation experiment, Hela cell growth (MTS); type: cell-based, Human; conditions: for effect on Hela cells saturated with Fe(III)-citrate (in words): chelator 50 μM, Fe(III)-citrate 50 μM
Method: Cytotoxicity of the new chelators was measured in the HeLa and HT29 cancer cells and compared to that of the clinically used iron chelators DFO and DTPA. […] The preliminary cell culture experiments were performed to see ifNETA is an effective cytotoxic agent. […] In order to investigate the effect of the chelators on the cellular growth, the Hela cancer cells saturated with Fe(III)-citrate (50 μM) were incubated with each of the chelators (50 μM).
Iron Saturation Experiment Hela Cells were inoculated onto 96-well plates at density of 2,000 per well in 0.1 mL complete medium and incubated for 24 h. […] Control samples containing no ferric citriate were also tested. […] After the incubation, cells proliferation rates were evaluated by MTS assay.

[7] = T1 relaxivity of Gd(III) complexes (Bruker mq60 NMR analyzer); type: physicochemical; conditions: aqueous Gd(III) complexes, ~pH 7, 60 MHz
Method: Gd(NE3TA) and Gd(NE3TA-Bn) were synthesized by reacting GdCl3 with NE3TA and NE3TA-Bn, respectively. NE3TA or NE3TA-Bn were mixed with GdCl3 in a molar ratio of 1 to 0.9, and the resulting mixture at pH 7 was heated to 90° C. and stirred until no free Gd(III) ions were detected using an ArsenazoIII (AAIII) assay. Relaxivity of the aqueous […] complexes (pH 7) was measured on a Bruker MQ60 NMR analyzer, and the concentration of the Gd(III) complexes was measured by ICP-MS. […] NE3TA was successfully conjugated with the most common bile acid, cholic acid (FIG. 41).
(§2) Relaxivity Measurements. Relaxivity measurements were acquired by taking the slope of a plot of 1/T1 (s^−1) versus concentration (mM). The longitudinal water proton relaxation times (T1) were determined using a Bruker mq60 NMR (Bruker Canada, Milton, ON, Canada) analyzer operating at 59.97 MHz and 37° C. The agent was added to Millipore water and serially diluted by 0.5 to give a series of 5 concentrations (500 μL total volume) for each relaxivity trial. The T1 was determined using an inversion recovery pulse sequence with 10 different pulse separations per sample, 4 repetitions per echo time, phase cycling, and a recycle delay that is ≥5 times the T1 of each given sample. All curves were fit using a monoexponential curve fitting formula.
Relaxivity of the aqueous Gd(III) complexes (˜pH 7) were measured on a Bruker MQ60 NMR analyzer, and the concentration of the Gd(III) complexes were measured by ICP-MS. […] As mentioned above, the on and off binding to Gd(III) of one of the pendant coordinates would have resulted enhanced relaxivity of Gd(C-NETA) compared to Gd(C-DOTA). Among the evaluated Gd(III) complexes, Gd(C-NE3TA) gives the highest T1 relaxivity at 60 MHz, probably due to increase in q. The relaxation rates for the Gd(III) chelates are dominated by the inner-sphere dipolar coupling between the coordinated water molecule and the paramagnetic Gd(III). The measured relaxivities arise from the exchange between the coordinated water molecule and the surrounding water molecules in solution. […] No indication of Gd(III) dissociation is evident from the relaxivity data, which is in agreement with the in vitro serum stability and in vivo biodistribution studies.
as §2, with “The T1 relaxivity was determined” for “The T1 was determined”

Row | Compound | complexation with Bi(III) (absorbance at 652 nm vs time, in words) [1] | complexation with Lu(III) (in words) [2] | IC50 [3] [µM] | cytotoxicity in HeLa cells over a series of concentrations (in words) [3] | IC50 [4] [µM] | viability of normal MRC-5 cells compared to cancer cells (in words) [5] | effect on Hela cells saturated with Fe(III)-citrate (in words) [6] | T1 relaxivity of Gd(III) complexes of bifunctional ligands [7] [mM⁻¹ s⁻¹] | HeLa cell survival (in words) ([6]; free ligand 50 μM, no ferric citrate)
1 | O=C(O)CN1CCN(CCN(CC(=O)O)CC(=O)O)CCN(CC(=O)O)CCN(CC(=O)O)CC1 [DEPA, {7-[2-(Bis-carboxymethyl-amino)-ethyl]-4,10-bis-carboxymethyl-1,4,7,10-tetraazacyclo-dodec-1-yl}-acetic acid] | quite prompt and substantial binding | slow in binding |  |  |  |  |  |  | 
2 | CC(=O)N(O)CCCCCNC(=O)CCC(=O)N(O)CCCCCNC(=O)CCC(=O)N(O)CCCCCN [DFO, desferoxamine, reference compound] |  |  | > 50 | not concentration-dependent | 36.1 ± 1.4 | little change in cell viability | modest increase in cell viability |  | 
3 | O=C(O)CN1CCN(CC(=O)O)CCN(CC(=O)O)CCN(CC(=O)O)CC1 [DOTA, reference compound] | sluggish complexation |  |  |  |  |  |  | 3.96 | 
4 | O=C(O)CN(CCN(CC(=O)O)CC(=O)O)CCN(CC(=O)O)CC(=O)O [DTPA, diethylenepentaacetic acid, reference compound] |  |  | 264 ± 36.2 | almost no cytotoxicity | 39.1 ± 4 | much enhanced viability of normal cells | almost no anti-proliferative activity |  | almost all HeLa cells incubated with DTPA (50 μM) survived
